Experimental data published in US8084621B2, “3-Pyrrolo[b]cyclohexylene-2-dihydroindolinone derivatives and uses thereof” (Jiangsu Simcere Pharmaceutical R&D Co. Ltd., priority 2006, dated 2011).

Experiments:
Assay type in all cases: cell-based
[1] = test system: Human Bladder Cancer Cell Line (T24); test: Tumor cell proliferation assay (MTT), T24; settings: for inhibition at 10 µM: concentration of 10^−5 mol/L, preliminary screening, 72 hours, read-out: Inhibition rate % T24; for IC50: secondary screening, 48 hours
Description: (§1) The assay used generally is the blue tetrazolium bromide (MTT) method. […] The amount of formazan can be detected by the microplate reader through the absorption value at 570 nm. The amount of formazan product generated is proportional to the number of living cells in the sample, so the OD value may reflect the number of living cells and the ability of a test drug to inhibit or kill cells. The MTT assay may be used in determining the ability of different compounds of the present invention to inhibit one or more cancer cells proliferation. Similar assays can be designed along the same lines for any cancer cell using techniques well known in the art.
(§2) The assay used generally is the blue tetrazolium bromide (MTT) method. […] Intracellular purple formazan salt crystals can be solved in DMSO and the absorption value at 570 nm is detected by the microplate reader, then the number of living cells can be detected indirectly. So MTT assay may be used to determine the ability of a compound of the present invention to inhibit cell proliferation. Similar assays can be designed along the same lines for any cancer cell using techniques well known in the art.
2.2.7 Human Bladder Cancer Cell Line (T24);
(§3) The cells of 2.2.6, 2.2.7 cultured in RPMI 1640 medium containing 12% fetal bovine serum in the condition of 37° C., 5% CO2.
(§4) 2.3.1 Cell seeding: Trypsinize the cell by 0.05% trypsin-EDTA and add RPMI 1640 medium (DMEM or 5A) containing 12% calf serum. Count the number, then dilute to 1.67×10^4/ml. Add 180 ul/well to the 96 well plate (3000 cells/well).
(§5) 2.3.2 Culture: cells are incubated for 24 hours at 37° C. under 5% CO2.
(§6) 2.3.3 Preliminary screening: The compounds are firstly diluted to 0.1 mol/L with DMSO, and then diluted to three concentrations of 10^−5 mol/L, 10^−6 mol/L and 10^−7 mol/L. Add 20 ul test compounds to the 96 well plate and incubate for 72 hours. Each group has three parallel wells and all experiments repeat three times. Each inhibition ratio is calculated, then an average value of three times is taken as the measured value. 2.3.4 Staining 2.3.4.1 Attached cell: add 20 ul/well MTT to the 96-well plates; incubate for 4 hours in the incubator. Pour out the culture medium in the well and add 100 ul/well DMSO. Shake the plate for 5 min. 2.3.4.2 Suspension cell: add 20 ul/well MTT to the 96-well plates; incubate for 4 hours in the incubator. Add 50 ul/well 20% SDS and incubate for overnight in the incubator. 2.3.5 Reading the plates: read the absorbance A570-A630 with the Infinite M200 microtiter plate reader. Calculate the inhibition ratio of the test compounds. 2.3.6 Secondary screening: the compounds whose inhibition ratio is greater than 50% at the concentrations of 10^−5 mol/L in the preliminary screening will be picked out for Secondary screening. Dilute these compounds to ten concentrations: 10^−5 mol/L, 0.5×10^−5 mol/L, 10^−6 mol/L, 0.8×10^−6 mol/L, 0.6×10^−6 mol/L, 0.4×10^−6 mol/L, 0.2×10^−6 mol/L, 10^−7 mol/L, 0.8×10^−7 mol/L and 0.4×10^−7 mol/L. Add 20 ul test compound solution to the 96 well plate and incubate for 48 hours. Each group has three parallel wells and all experiments repeat for three times. Read the plates and calculate the inhibition ratio according to the preliminary screening method. 2.3.7 Calculate the Inhibition Ratio of Cell Proliferation and the IC50
(§7) According to the inhibition ratio of cell proliferation at the different concentrations of the compound, inhibition ratio of 50% of the test compound is calculated through the logarithm of the concentration of the compound with the Logit [I] linear regression, and an average value of three times is taken as the measured value of a sample.

[2] = test system: Human Pancreatic Carcinoma Cells (PANC-1); test: Tumor cell proliferation assay (MTT), PANC-1; settings: for inhibition at 10 µM: concentration of 10^−5 mol/L, preliminary screening, 72 hours, read-out: Inhibition rate % PANC-1; for IC50: secondary screening, 48 hours
Description: as §1, §2
2.2.4 Human Pancreatic Carcinoma Cells (PANC-1)
(§8) The cells of the 2.2.1, 2.2.2, 2.2.3, 2.2.4, 2.2.5 cultured with RPMI 1640 containing 12% calf serum in the condition of 37° C., 5% CO2.
as §4, §5, §6, §7

[3] = test system: Human Colon Cancer Cell Line (HT-29); test: Tumor cell proliferation assay (MTT), HT29; settings: for inhibition at 10 µM: concentration of 10^−5 mol/L, preliminary screening, 72 hours, read-out: Inhibition rate % HT29; for IC50: secondary screening, 48 hours
Description: as §1, §2
2.2.11 Human Colon Cancer Cell Line (HT-29);
(§9) The cells of 2.2.11, 2.2.12, 2.2.13 were cultured in MC COYS 5-A medium containing 12% fetal bovine serum in the condition of 37° C., 5% CO2.
as §4, §5
as §6, with “2.3.6 Secondary screening: the compounds whose inhibition ratio is greater than 50% at the concentrations of 10^−5 mol/L in the preliminary screening will be picked out for Secondary screening.” left out
as §7

[4] = test system: Human Colon Cancer Cell Line (CACO-2); test: Tumor cell proliferation assay (MTT), CACO-2; settings: concentration of 10^−5 mol/L, preliminary screening, 72 hours, read-out: Inhibition rate % CACO-2
Description: as §1, §2
2.2.10 Human Colon Cancer Cell Line (CACO-2)
The cell of 2.2.10 cultured in DMEM/High glucose medium containing 12% fetal bovine serum in the condition of 37° C., 5% CO2.
as §4, §5, §6, §7

[5] = test system: Human Hepatocellular Carcinoma Cell Line (HEPG2); test: Tumor cell proliferation assay (MTT), HEPG2; settings: for inhibition at 10 µM: concentration of 10^−5 mol/L, preliminary screening, 72 hours, read-out: Inhibition rate % HEPG2; for IC50: secondary screening, 48 hours
Description: as §1, §2
2.2.8 Human Hepatocellular Carcinoma Cell Line (HEPG2);
The cells of 2.2.8, 2.2.9 cultured in DMEM/High glucose medium containing 12% calf serum in the condition of 37° C., 5% CO2.
as §4, §5, §6, §7

[6] = test system: Human Gastric Cancer Cell Line (BGC); test: Tumor cell proliferation assay (MTT), BGC; settings: for inhibition at 10 µM: concentration of 10^−5 mol/L, preliminary screening, 72 hours, read-out: Inhibition rate % BGC; for IC50: secondary screening, 48 hours
Description: as §1, §2
2.2.1 Human Gastric Cancer Cell Line (BGC)
as §8, §4, §5, §6, §7

[7] = test system: Human Pancreatic Carcinoma Cell Line (BXPC-3); test: Tumor cell proliferation assay (MTT), BXPC-3; settings: for inhibition at 10 µM: concentration of 10^−5 mol/L, preliminary screening, 72 hours, read-out: Inhibition rate % BXPC-3; for IC50: secondary screening, 48 hours
Description: as §1, §2
2.2.6 Human Pancreatic Carcinoma Cell Line (BXPC-3);
as §3, §4, §5
as §6, with “2.3.6 Secondary screening: the compounds whose inhibition ratio is greater than 50% at the concentrations of 10^−5 mol/L in the preliminary screening will be picked out for Secondary screening.” left out
as §7

[8] = test system: Human Non-Small Cell Lung Cancer Cell Line (A549); test: Tumor cell proliferation assay (MTT), A549; settings: for inhibition at 10 µM: concentration of 10^−5 mol/L, preliminary screening, 72 hours, read-out: Inhibition rate % A549; for IC50: secondary screening, 48 hours
Description: as §1, §2
2.2.2 Human Non-Small Cell Lung Cancer Cell Line (A549)
as §8, §4, §5, §6, §7

[9] = test system: Human Small Cell Lung Cancer Cell Line (NCI-H446); test: Tumor cell proliferation assay (MTT), NCI-H446; settings: for inhibition at 10 µM: concentration of 10^−5 mol/L, preliminary screening, 72 hours, read-out: Inhibition rate % NCI-H446; for IC50: secondary screening, 48 hours
Description: as §1, §2
2.2.5 Human Small Cell Lung Cancer Cell Line (NCI-H446)
as §8, §4, §5, §6, §7

[10] = test system: Human Ovarian Cancer Cell Line (SK-OV-3); test: Tumor cell proliferation assay (MTT), SK-OV-3; settings: for inhibition at 10 µM: concentration of 10^−5 mol/L, preliminary screening, 72 hours, read-out: Inhibition rate % SK-OV-3; for IC50: secondary screening, 48 hours
Description: as §1, §2
2.2.13 Human Ovarian Cancer Cell Line (SK-OV-3).
as §9, §4, §5, §6, §7

[11] = test system: Human Colon Cancer Cell Line (HCT 116); test: Tumor cell proliferation assay (MTT), HCT116; settings: concentration of 10^−5 mol/L, preliminary screening, 72 hours, read-out: Inhibition rate % HCT116
Description: as §1, §2
2.2.12 Human Colon Cancer Cell Line (HCT 116);
as §9, §4, §5, §6, §7

[12] = test system: Human Leukemia Line (K562); test: Tumor cell proliferation assay (MTT), K562; settings: concentration of 10^−5 mol/L, preliminary screening, 72 hours, read-out: Inhibition rate % K562
Description: as §1, §2
2.2.3 Human Leukemia Line (K562)
as §8, §4, §5, §6, §7

Row | Compound | inhibition at 10 µM [1] [%] | inhibition at 10 µM [2] [%] | inhibition at 10 µM [3] [%] | inhibition at 10 µM [4] [%] | inhibition at 10 µM [5] [%] | inhibition at 10 µM [6] [%] | inhibition at 10 µM [7] [%] | inhibition at 10 µM [8] [%] | IC50 [1] [µM] | IC50 [2] [µM] | IC50 [3] [µM] | inhibition at 10 µM [9] [%] | IC50 [9] [µM] | IC50 [5] [µM] | IC50 [6] [µM] | inhibition at 10 µM [10] [%] | IC50 [10] [µM] | IC50 [7] [µM] | IC50 [8] [µM] | also measured
1 | Cc1[nH]c2c(c1C(=O)N1CCOCC1)CCC/C2=C1/C(=O)Nc2ccc(F)cc21 [I-10, 2-methyl-3-(morpholine-4-carbonyl)-7-[1,2-dihydro-5-fluoro-2-oxo-3H-indol-(Z)-3-ylidene]-4,5,6,7-tetrahydro-1H-indole] | 27.5 | 11.7 | 30.9 | 0 | 43.5 | 15.2 | 51.7 | 7.64 | – | – | – | – | – | – | – | – | – | – | – | –
2 | Cc1[nH]c2c(c1C(=O)NCC(O)CN1CCCCC1)CCC/C2=C1/C(=O)Nc2ccc(Cl)cc21 (centres unmarked) [I-75, N-(2-hydroxy-3-(piperidin-1-yl)propyl)-2-methyl-7-[1,2-dihydro-5-chloro-2-oxo-3H-indol-(Z)-3-ylidene]-4,5,6,7-tetrahydro-1H-indole-3-carboxamide] | 99.9 | 53.6 | 67.3 | – | 99 | 45.4 | 73.1 | 40.1 | 3.99 | 3.58 | 5.17 | 44.1 | 9.25 | 3.59 | 11.1 | 49.2 | 5.69 | 4.47 | 14.5 | –
3 | Cc1[nH]c2c(c1C(=O)N1CCOCC1)CCC/C2=C1/C(=O)Nc2ccccc21 [I-12, 2-methyl-3-(morpholine-4-carbonyl)-7-[1,2-dihydro-2-oxo-3H-indol-(Z)-3-ylidene]-4,5,6,7-tetrahydro-1H-indole] | 14.6 | 23.3 | 78.4 | 11.7 | 12.8 | 31.9 | 29.5 | 1.1 | – | – | – | – | – | – | – | – | – | – | – | inhibition at 10 µM [11]: 36.5%
4 | CCN(CC)CC(O)CNC(=O)c1c(C)[nH]c2c1CCC/C2=C1/C(=O)Nc2ccc(Cl)cc21 (centres unmarked) [I-65, N-(3-(diethylamino)-2-hydroxypropyl)-2-methyl-7-[1,2-dihydro-5-chloro-2-oxo-3H-indol-(Z)-3-ylidene]-4,5,6,7-tetrahydro-1H-indole-3-carboxamide] | 97.9 | 98.1 | 98.3 | – | 100 | 91.1 | 99.2 | 85 | 2.73 | 1.67 | 3.06 | 99 | 1.5 | 2.8 | 1.72 | 95.7 | 2.23 | 1.15 | 2.38 | –
5 | CCOC(=O)c1c(C)[nH]c2c1CCC/C2=C1/C(=O)Nc2ccc(F)cc21 [I-1, ethyl 2-methyl-7-[1,2-dihydro-5-fluoro-2-oxo-3H-indol-(Z)-3-ylidene]-4,5,6,7-tetrahydro-1H-indole-3-carboxylate] | – | – | – | – | – | – | – | – | – | – | – | – | – | – | – | – | – | – | – | inhibition at 10 µM [12]: 28.6%
6 | Cc1[nH]c2c(c1C(=O)N1CCN(C)CC1)CCC/C2=C1/C(=O)Nc2ccccc21 [I-13, 2-methyl-3-(4-methylpiperazine-1-carbonyl)-7-[1,2-dihydro-2-oxo-3H-indol-(Z)-3-ylidene]-4,5,6,7-tetrahydro-1H-indole] | 9.04 | 0 | 63.2 | 9.79 | 46 | 11.1 | 42.4 | 3.82 | – | – | – | – | – | – | – | – | – | – | – | –
